Data on 9 molecules can be found in US8202844B2, “Indole antiviral compositions and methods” (The Regents of the University of Michigan, priority 2003, dated 2012).

Read-outs that look alike come from different tables or passages of the source.

Series [1] concerns human cytomegalovirus (HCMV). The settings on record: cited from earlier work; for activity against HCMV: literature reports.
In a further series the test system is uninfected host cells. As to conditions: cited from earlier work.
In series [2] the test system is human cytomegalovirus (HCMV). Briefly: HCMV plaque reduction assay. The series is classed as cell-based, HCMV Towne strain in HFF cells. As to conditions: for IC50: read-out: 50% Inhibitory Concentration, HCMV Activity. How it is done: (§1) Virological procedures. The Towne strain, plaque-purified isolate Po, of HCMV was kindly provided by Dr. Mark Stinski, University of Iowa. The KOS strain of HSV-1 was used in most experiments and was provided by Dr. Sandra K. Weller, University of Connecticut. Stock HCMV was prepared by infecting HFF cells at a multiplicity of infection (m.o.i.) of <0.01 plaque-forming units (p.f.u.) per cell as detailed previously (Turk, et al., Agents Chemother. 1987, 31, 544-550, herein incorporated by reference). High titer HSV-1 stocks were prepared by infecting KB cells at an m.o.i. of <0.1 also as detailed previously (see Turk et al.). Virus titers were determined using monolayer cultures of HFF cells for HCMV and monolayer cultures of BSC-1 cells for HSV-1 as described earlier (Prichard, et al., J. Virol. Methods 1990, 28, 101-106, herein incorporated by reference). Briefly, HFF or BSC-1 cells were planted as described above in 96-well cluster dishes and incubated overnight at 37° C. The next day cultures were inoculated with HCMV or HSV-1 and serially diluted 1:3 across the remaining eleven columns of the 96-well plate. After virus adsorption the inoculum was replaced with fresh medium and cultures were incubated for seven days for HCMV, two or three days for HSV-1. Plaques were enumerated under 20-fold magnification in wells having the dilution which gave 5 to 20 plaques per well. Virus titers were calculated according to the following formula: Titer (p.f.u./mL)=number of plaques×5×3^n; where n represents the n^th dilution of the virus used to infect the well in which plaques were enumerated.
HCMV plaque reduction assay. HFF cells in 24-well cluster dishes were infected with approximately 100 p.f.u. of HCMV per cm^2 cell sheet using the procedures detailed above. Following virus adsorption, the compounds, prepared as 10 mg/mL stock solutions in DMSO were diluted with growth medium and were added to duplicate wells in four to eight selected concentrations. After incubation at 37° C. for 7-10 days, cell sheets were fixed, stained with crystal violet and microscopic plaques enumerated as described above. Drug effects were calculated as a percentage of reduction in number of plaques in the presence of each drug concentration compared to the number observed in the absence of drug.
(§2) Data Analysis. Dose response relationships were used to quantitate drug effects by linear regression of the percent inhibition of parameters derived in the preceding assays against log10 drug concentrations. Fifty percent inhibitory concentrations (IC50's) were calculated from the linear portions of the regression lines. Samples containing positive controls (acyclovir for HSV-1, GCV for HCMV, and 2-acetylpyridine thiosemicarbazone for cytotoxicity) were used in all assays.
For orientation: Plaques are areas of infected cells; plaque reduction assays count them against a control.

Series [3] is described as follows: Cytotoxicity in stationary HFF cells, microscopic inspection. The series is classed as cell-based. As to conditions: human, read-out: 50% Inhibitory Concentration, HFF Cytotoxicity. How it is done: (§3) Cytotoxicity assays. Two different assays were used for routine cytotoxicity testing. (i) Cytotoxicity produced in stationary HFF cells was determined by microscopic inspection of cells not affected by the virus used in plaque assays (Turk, et al., Agents Chemother. 1987, 31, 544-550, herein incorporated by reference). (ii) The effect of compounds during two population doublings of KB cells was determined by crystal violet staining and spectrophotometric quantitation of dye eluted from stained cells as described earlier (Prichard, et al., Antiviral Res. 1991, 35, 1060-1065, herein incorporated by reference). Briefly, 96-well cluster dishes were planted with KB cells at 3000-5000 cells per well. After overnight incubation at 37° C., test compound was added in quadruplicate at six to eight concentrations. Plates were incubated at 37° C. for 48 h in a CO2 incubator, rinsed, fixed with 95% ethanol, and stained with 0.1% crystal violet. Acidified ethanol was added and plates read at 570 nm in a spectrophotometer designed to read 96-well ELISA assay plates.
as §2

Series [4] deals with herpes simplex virus type 1 (HSV-1). Briefly: HSV-1 ELISA. The series is classed as cell-based, HSV-1 KOS strain in BSC-1 cells. How it is done: as §1
HSV-1 ELISA. An ELISA was employed (Prichard, et al., Antiviral Res. 1990, 14, 181-206, herein incorporated by reference) to detect HSV-1. Ninety-six-well cluster dishes were planted with 10,000 BSC-1 cells per well in 200 μL per well of MEM(E) plus 10% calf serum. After overnight incubation at 37° C., selected drug concentrations in quadruplicate and HSV-1 at a concentration of 100 p.f.u./well were added. Following a 3-day incubation at 37° C., medium was removed, plates were blocked, rinsed, and horse radish peroxidase conjugated rabbit anti-HSV-1 antibody was added. Following removal of the antibody containing solution, plates were rinsed, and then developed by adding 150 μl per well of a solution of tetramethylbenzidine as substrate. The reaction was stopped with H2SO4 and absorbance was read at 450 and 570 nm. Drug effects were calculated as a percentage of the reduction in absorbance in the presence of each drug concentration compared to absorbance obtained with virus in the absence of drug.
as §2
A general note: In an ELISA, binding on a coated surface is turned into a signal by an enzyme label.

Series [5] in a line: Cytotoxicity in growing KB cells, crystal violet staining. As to conditions: human, read-out: 50% Inhibitory Concentration, KB Cytotoxicity. The series is classed as cell-based. How it is done:
as §3, §2

For series [6], the system named is human cytomegalovirus (HCMV). Briefly: Literature activity against HCMV replication in vitro. Format: cell-based.
For series [7] the following is noted: Good et al.; cited from earlier work.
Where [8] appears, read: Human betaherpesvirus 5, plaque reduction in HFF cells.
[9] abbreviates: stationary human foreskin fibroblasts (HFF cells).
[10] abbreviates: Human alphaherpesvirus 1, ELISA in BSC-1 cells, read-out: 50% Inhibitory Concentration, HSV-1 Activity.
The mark [11] stands for this setting: Human alphaherpesvirus 1, BSC-1, read-out: 50% Inhibitory Concentration, HSV-1 Activity.

For the molecule `OC[C@H]1O[C@@H](n2c(Cl)cc3cc(Cl)c(Cl)cc32)[C@H](O)[C@@H]1O` [Compound 4.2, 2,5,6-trichloro-1-(β-D-ribofuranosyl)indole, reference compound], the “activity against HCMV” value in series [1] is “inactive”. Also, the “cytotoxicity” value in the series on uninfected host cells (Chen et al.) is on record as “non-cytotoxic”.
For the molecule `CN(C)c1c(C#N)c2cc(Cl)c(Cl)cc2n1[C@@H]1O[C@H](CO)[C@@H](O)[C@H]1O` [Compound 4.14, 5,6-Dichloro-2-dimethylamino-3-cyano-1-(β-D-ribofuranosyl)indole], the IC50 was 17 µM in series [2] (setting [8]), 100 µM in series [3] (setting [9]) and over 100 µM in series [4] (setting [10]). For the same molecule, the IC50 at 48 h in series [5] was 90 µM.
Regarding `C[C@H]1O[C@@H](n2c(Cl)c(C=O)c3cc(Cl)c(Cl)cc32)[C@H](O)[C@@H]1O` [Compound 4.97, 2,5,6-Trichloro-3-formyl-1-(5-deoxy-β-D-ribofuranosyl)indole], the IC50 in series [2] (Human betaherpesvirus 5, HFF) is 0.3 µM; in series [3], 32 µM; in series [4] (setting [11]), 20 µM. For the same molecule, the IC50 at 48 h in series [5] came to 25 µM.
On the same counts, the results for `CC(=O)OC[C@H]1O[C@@H](n2c(Br)c(C=O)c3cc(Cl)c(Cl)cc32)[C@H](O)[C@@H]1O` [Compound 4.136, 5,6-Dichloro-2-bromo-3-formyl-1-(5-O-acetyl-β-D-ribofuranosyl)indole] are 0.3 µM, 32 µM, 15 µM and 40 µM.
As usually defined, the CC50 is the concentration giving 50% cytotoxicity. For the molecule `O=Cc1c(Cl)n([C@@H]2O[C@H](CO)[C@@H](O)[C@H]2O)c2cc(Cl)c(Cl)cc12` [Compound 4.3, 2,5,6-trichloro-3-formyl-1-(β-D-ribofuranosyl)indole], the IC50 is 0.2 µM in series [2] (Human betaherpesvirus 5, HFF); 45 µM in series [3]; 0.23 µM in series [1] (Chen thesis, read-out: IC50 against HCMV); 40 µM in series [4] (setting [11]). In addition, the “selectivity index (calculated by dividing the CC50 by the IC50)” value in series [6] is 195. Also, in series [1], the “activity against HCMV” value is reported as “even more active than TCRB”. In addition, the IC50 at 48 h in series [5] turned out to be 45 µM. In addition, in the series on uninfected host cells (Chen thesis, read-out: CC50 against uninfected host cells), the 50% cytotoxic concentration (CC50) was 45 µM.
`COC(=N)c1c(Cl)n([C@@H]2O[C@H](CO)[C@@H](O)[C@H]2O)c2cc(Cl)c(Cl)cc12` [Compound 4.34, Methyl 2,5,6-Trichloro-1-(β-D-ribofuranosyl)indole-3-formimidate]: the IC50 came out at 0.4 µM in series [2] (setting [8]), 100 µM in series [3] (setting [9]) and 70 µM in series [4] (setting [10]). The IC50 at 48 h in series [5] turned out to be 90 µM.
In the case of `CC(=O)OC[C@H]1O[C@@H](n2c(Cl)c(C(C)=O)c3cc(Cl)c(Cl)cc32)[C@H](O)[C@@H]1O` [Compound 4.43, 2,5,6-Trichloro-3-acetyl-1-(5-O-acetyl-β-D-ribofuranosyl)indole], in series [2] (virus not specified, HCMV and HSV-1 were used), the “antiviral activity” value is on record as “comparable to the fully deprotected analog”.
As to `CC(C)Nc1nc2cc(Cl)c(Cl)cc2n1[C@H]1O[C@@H](CO)[C@H](O)[C@@H]1O` [Compound 1263W94], in series [1], the “activity against HCMV” value is given as “very active”.
On to `OC[C@H]1O[C@@H](n2c(Cl)nc3cc(Cl)c(Cl)cc32)[C@H](O)[C@@H]1O` [TCRB, 2,5,6-trichloro-1-(β-D-ribofuranosyl)benzimidazole], for which, in series [1], the “activity against HCMV” value was “potent and selective inhibitor”. Also, the “in vivo stability” value in series [7] is “in vivo instability”.
